In patent US6706740B2, “Fungicidal heterocyclic aromatic amides and their compositions, methods of use and preparation” (Dow AgroSciences LLC, priority 1999, dated 2004):
Where two headings read alike, the source gives them in different places.

Tests used:
[1] = tested on: Rhizoctonia solani (RHIZSO); test: microbe, parasite or virus in culture; assay type: cell-based; details: Rhizoctonia solani, read-out: RHIZSO in vitro Growth Inhibition
[2] = tested on: Magnaporthe grisea (Pyricularia oryzae—PYRIOR); test: microbe, parasite or virus in culture; assay type: cell-based; details: Pyricularia oryzae, read-out: PYRIOR in vitro Growth Inhibition
[3] = tested on: Stagonospora nodorum (Leptosphaeria nodorum—LEPTNO); test: In vitro fungal growth inhibition, Stagonospora nodorum (LEPTNO); assay type: cell-based; details: Leptosphaeria, read-out: LEPTNO in vitro Growth Inhibition
[4] = tested on: Phytophthora infestans (PHYTIN); test: microbe, parasite or virus in culture; assay type: cell-based; details: Phytophthora infestans, read-out: PHYTIN in vitro Growth Inhibition
[5] = tested on: Erysiphe graminis—ERYSGT; test: Powdery Mildew of Wheat, in vivo whole plant, 24 Hour Protectant; details: for pest or weed control at 100 ppm: Erysiphe, wheat plants sprayed at 100 ppm, inoculated after 24 hours, control of fungal infection vs untreated plants, read-out: ERYSGT in vivo 1 Day Protectant
[6] = tested on: Septoria tritici—SEPTTR; test: Leaf Blotch of Wheat, in vivo whole plant, 24 Hour Protectant; details: for pest or weed control at 100 ppm: Zymoseptoria tritici, 24 h, wheat plants sprayed at 100 ppm, inoculated after 24 hours, control of fungal infection vs untreated plants, read-out: SEPTTR in vivo 1 Day Protectant
[7] = tested on: Leptosphaeria nodorum—LEPTNO; test: Glume Blotch of Wheat, in vivo whole plant, 24 Hour Protectant; details: for pest or weed control at 100 ppm: Leptosphaeria, wheat plants sprayed at 100 ppm, inoculated after 24 hours, control of fungal infection vs untreated plants, read-out: LEPTNO in vivo 1 Day Protectant
[8] = tested on: Phytophthora infestans—PHYTIN; test: whole plant or invertebrate; assay type: in vivo; details: for pest or weed control at 100 ppm: Phytophthora, in Solanum lycopersicum, 24 h, read-out: PHYTIN in vivo 1 Day Protectant
[9] = tested on: Mycosphaerella graminicola (Septoria tritici—SEPTTR); test: In vitro fungal growth inhibition, Mycosphaerella graminicola (SEPTTR); assay type: cell-based; details: Zymoseptoria tritici, read-out: SEPTTR in vitro Growth Inhibition
[10] = tested on: Ustilago maydis (USTIMA); test: microbe, parasite or virus in culture; assay type: cell-based; details: Mycosarcoma maydis, read-out: USTIMA in vitro Growth Inhibition
[11] = tested on: Puccinia recondita—PUCCRT; test: Brown Rust of Wheat, in vivo whole plant, 24 Hour Protectant; details: for pest or weed control at 100 ppm: Puccinia, read-out: PUCCRT in vivo 1 Day Protectant
[12] = wheat plants sprayed at 100 ppm, inoculated after 24 hours, control of fungal infection vs untreated plants
[13] = 100 ppm spray, wheat, 24 hour protectant, % control of fungal infection vs untreated plants

| SMILES | inhibition at 25 ppm [1] | inhibition at 25 ppm [2] | inhibition at 25 ppm ([3]; 25 ppm in the growth medium) | inhibition at 25 ppm [4] | pest or weed control at 100 ppm [5] | pest or weed control at 100 ppm [6] | melting point | pest or weed control at 100 ppm [7] | pest or weed control at 100 ppm [8] | inhibition at 25 ppm ([9]; 25 ppm in the growth medium) | inhibition at 25 ppm [10] | pest or weed control at 100 ppm [11, 12] | PHYTIN in vivo 1 Day Protectant ([8]; tomato plants sprayed at 100 ppm, inoculated after 24 hours, control of fungal infection vs untreated plants) | PUCCRT in vivo 1 Day Protectant [11, 12] | inhibition at 25 ppm ([3]; 25 ppm in growth medium) | ERYSGT in vivo 1 Day Protectant [5, 13] | SEPTTR in vivo 1 Day Protectant [6, 13] | LEPTNO in vivo 1 Day Protectant [7, 13] | inhibition at 25 ppm ([9]; 25 ppm in growth medium) | PUCCRT in vivo 1 Day Protectant [11, 13] |
| --- | --- | --- | --- | --- | --- | --- | --- | --- | --- | --- | --- | --- | --- | --- | --- | --- | --- | --- | --- | --- |
| CC1(C)CC(NC(=O)c2nscc2O)CC(C)(C)C1 [Compound 549] | < 80% | < 80% | < 80% | > 80% | < 25% | 25 to 74% | 121 to 125 °C | 25 to 74% | < 25% | > 80% | < 80% | < 25% | – | – | – | – | – | – | – | – |
| CC1(C)CC(NC(=O)c2nsnc2O)CC(C)(C)C1 [Compound 552] | > 80% | > 80% | > 80% | > 80% | 25 to 74% | < 25% | 96 to 102 °C | < 25% | 25 to 74% | > 80% | < 80% | < 25% | – | – | – | – | – | – | – | – |
| CC1(C)CC(NC(=O)c2cscc2O)CC(C)(C)C1 [Compound 554, 4-HYDROXYTHIOPHENE-N-(3,3,5,5-TETRAMETHYLCYCLOHEXYL)-3-CARBOXAMIDE] | < 80% | > 80% | > 80% | > 80% | < 25% | 25 to 74% | 170 to 174 °C | 25 to 74% | < 25% | < 80% | < 80% | 25 to 74% | – | – | – | – | – | – | – | – |
| CC(C)C(=O)O[C@H]1[C@H](C)OC(=O)[C@@H](NC(=O)c2cnn(C)c2O)COC(=O)[C@@H]1Cc1ccccc1 [Compound 556] | < 80% | < 80% | < 80% | > 80% | < 25% | < 25% | 195 °C (dec.) | 25 to 74% | < 25% | < 80% | < 80% | 25 to 74% | – | – | – | – | – | – | – | – |
| Cn1cc(C(=O)NC2CC(C)(C)CC(C)(C)C2)c(O)n1 [Compound 557] | < 80% | < 80% | < 80% | > 80% | < 25% | 25 to 74% | 205 to 208 °C | 25 to 74% | < 25% | < 80% | < 80% | 25 to 74% | – | – | – | – | – | – | – | – |
| CC(C)C(=O)O[C@H]1[C@H](C)OC(=O)[C@@H](NC(=O)c2cn(C)nc2O)COC(=O)[C@@H]1Cc1ccccc1 [Compound 558] | < 80% | < 80% | < 80% | < 80% | < 25% | 25 to 74% | 199 to 205 °C | 25 to 74% | < 25% | < 80% | < 80% | 25 to 74% | – | – | – | – | – | – | – | – |
| CC1(C)CC(NC(=O)c2cn(-c3ccccc3)nc2O)CC(C)(C)C1 [Compound 559] | < 80% | < 80% | < 80% | < 80% | < 25% | < 25% | 215 to 217 °C | 25 to 74% | < 25% | < 80% | < 80% | 25 to 74% | – | – | – | – | – | – | – | – |
| CC1(C)CC(NC(=O)c2conc2O)CC(C)(C)C1 [Compound 560] | < 80% | < 80% | < 80% | < 80% | < 25% | 25 to 74% | 186 to 188 °C | 25 to 74% | < 25% | < 80% | < 80% | 25 to 74% | – | – | – | – | – | – | – | – |
| CC(C)C(=O)O[C@H]1[C@H](C)OC(=O)[C@@H](NC(=O)c2conc2O)COC(=O)[C@@H]1Cc1ccccc1 [Compound 561] | < 80% | < 80% | < 80% | < 80% | 25 to 74% | 25 to 74% | 115 to 117 °C | < 25% | < 25% | < 80% | < 80% | 25 to 74% | – | – | – | – | – | – | – | – |
| CC(C)C(=O)O[C@H]1[C@H](C)OC(=O)[C@@H](NC(=O)c2nc3ccccc3cc2O)COC(=O)[C@@H]1Cc1ccccc1 [Compound 562] | < 80% | < 80% | < 80% | < 80% | 25 to 74% | 25 to 74% | 163 to 165 °C | < 25% | < 25% | < 80% | < 80% | < 25% | – | – | – | – | – | – | – | – |
| CC1(C)CC(NC(=O)c2nc3ccccc3nc2O)CC(C)(C)C1 [Compound 563] | < 80% | < 80% | < 80% | < 80% | < 25% | < 25% | > 300 °C | 25 to 74% | < 25% | < 80% | < 80% | < 25% | – | – | – | – | – | – | – | – |
| CC(=O)Oc1cccnc1C(=O)NC1CCC(OC(C)=O)CC1 (stereo not drawn) [Compound 564] | < 80% | < 80% | < 80% | < 80% | < 25% | < 25% | 158 to 161 °C | 25 to 74% | < 25% | < 80% | < 80% | < 25% | – | – | – | – | – | – | – | – |
| O=C(Oc1cccnc1C(=O)NC1CCC(OC(=O)c2ccccc2)CC1)c1ccccc1 (stereo not drawn) [Compound 567] | < 80% | < 80% | < 80% | < 80% | < 25% | 25 to 74% | 174 to 177 °C | 25 to 74% | – | < 80% | < 80% | < 25% | + + | – | – | – | – | – | – | – |
| Cc1ccnc(C(=O)N[C@H]2COC(=O)[C@H](Cc3ccccc3)[C@@H](OC(=O)C(C)C)[C@H](C)OC2=O)c1OC(=O)C(C)C [Compound 572] | < 80% | < 80% | < 80% | < 80% | < 25% | 25 to 74% | 163 to 166 °C | 25 to 74% | < 25% | < 80% | < 80% | – | – | + + | – | – | – | – | – | – |
| C=C1COC(=O)[C@@H](NC(=O)c2nccc(OC)c2OC(C)=O)COC(=O)C1 [Compound 595] | < 80% | < 80% | < 80% | < 80% | < 25% | < 25% | 163 to 164 °C | 25 to 74% | < 25% | < 80% | < 80% | < 25% | – | – | – | – | – | – | – | – |
| CCC(=O)Oc1c(OC)ccnc1C(=O)N[C@H]1COC(=O)[C@H](Cc2ccccc2)[C@@H](OC(=O)C(C)C)[C@H](C)OC1=O [Compound 598] | < 80% | < 80% | – | < 80% | – | – | 171 to 172 °C | – | < 25% | – | < 80% | – | – | – | > 80% | + + | + + | + + | > 80% | + + |
